Patent US10173971B2, “Picolinamides with fungicidal activity” (DOW AGROSCIENCES LLC, priority 2014, dated 2019)
Where two headings read alike, the source gives them in different places.

Legend:
Zymoseptoria tritici = assay: Fungicidal activity: leaf blotch of wheat (SEPTTR), wheat seedlings, booth sprayer to run-off or track spray; format: in vivo; conditions: for pest or weed control at 100 ppm: High-Volume Cereal Activity at 100 ppm; for pest or weed control at 121.5 g/ha: Low-Volume Cereal Activity at 121.5 g/H
Method: All fungicides were evaluated using the aforementioned method for their activity vs. all target diseases. Wheat leaf blotch and brown rust activity were also evaluated using track spray applications, in which case the fungicides were formulated as EC formulations, containing 0.1% Trycol 5941 in the spray solutions. Wheat plants (variety Yuma) were grown from seed in a greenhouse in 50% mineral soil/50% soil-less Metro mix until the first leaf was fully emerged, with 7-10 seedlings per pot. These plants were inoculated with an aqueous spore suspension of Zymoseptoria tritici either prior to or after fungicide treatments. After inoculation the plants were kept in 100% relative humidity (one day in a dark dew chamber followed by two to three days in a lighted dew chamber at 20° C.) to permit spores to germinate and infect the leaf. The plants were then transferred to a greenhouse set at 20° C. for disease to develop. When disease symptoms were fully expressed on the 1st leaves of untreated plants, infection levels were assessed on a scale of 0 to 100 percent disease severity. Percent disease control was calculated using the ratio of disease severity on treated plants relative to untreated plants.

Puccinia triticina = assay: Fungicidal activity: wheat brown rust (PUCCRT), wheat seedlings, booth sprayer to run-off or track spray; format: in vivo; conditions: for pest or weed control at 100 ppm: High-Volume Cereal Activity at 100 ppm; for pest or weed control at 121.5 g/ha: Low-Volume Cereal Activity at 121.5 g/H
Method: All fungicides were evaluated using the aforementioned method for their activity vs. all target diseases. Wheat leaf blotch and brown rust activity were also evaluated using track spray applications, in which case the fungicides were formulated as EC formulations, containing 0.1% Trycol 5941 in the spray solutions. Wheat plants (variety Yuma) were grown from seed in a greenhouse in 50% mineral soil/50% soil-less Metro mix until the first leaf was fully emerged, with 7-10 seedlings per pot. These plants were inoculated with an aqueous spore suspension of Puccinia triticina either prior to or after fungicide treatments. […] The plants were then transferred to a greenhouse set at 24° C. for disease to develop. Fungicide formulation, application and disease assessment followed the procedures as described in the Example A.

[1] = 3DC (Day Curative), read-out: SEPTTR 3DC
[2] = 3DC (Day Curative), read-out: PUCCRT 3DC
[3] = 24 h, 1 Day Protectant, read-out: SEPTTR 1DP
[4] = 24 h, 1 Day Protectant, read-out: PUCCRT 1DP
[5] = 72 h, 3 Day Curative, read-out: SEPTTR 3DC
[6] = 72 h, 3 Day Curative, read-out: PUCCRT 3DC

Row | SMILES | pest or weed control at 100 ppm (Zymoseptoria tritici; [1]) | pest or weed control at 100 ppm (Puccinia triticina; [2]) | pest or weed control at 100 ppm (Zymoseptoria tritici; [3]) | pest or weed control at 100 ppm (Puccinia triticina; [4]) | pest or weed control at 121.5 g/ha (Zymoseptoria tritici; [3]) | pest or weed control at 121.5 g/ha (Zymoseptoria tritici; [5]) | pest or weed control at 121.5 g/ha (Puccinia triticina; [4]) | pest or weed control at 121.5 g/ha (Puccinia triticina; [6])
1 | CCCC[C@H](c1ccccc1)[C@H](C)OC(=O)[C@H](C)NC(=O)c1nccc(OC)c1O [compound 120] | 0 to 80% | 0 to 80% | – | – | – | – | – | –
2 | COc1ccnc(C(=O)N[C@@H](C)C(=O)O[C@@H](C)[C@H](Cc2ccc(Cl)cc2)c2ccccc2)c1O [compound 121] | 0 to 80% | 0 to 80% | 80 to 100% | 80 to 100% | – | – | – | –
3 | COc1ccnc(C(=O)N[C@@H](C)C(=O)O[C@@H](C)[C@H](CCC(C)C)c2ccccc2)c1O [compound 123] | 80 to 100% | 0 to 80% | – | – | – | – | – | –
4 | COc1ccnc(C(=O)N[C@@H](C)C(=O)O[C@@H](C)[C@@H](COc2ccccc2)Cc2ccccc2)c1O [compound 125] | 0 to 80% | 0 to 80% | 0 to 80% | 0 to 80% | – | – | – | –
5 | COc1ccnc(C(=O)N[C@@H](C)C(=O)O[C@@H](C)[C@@H](COc2ccc(Cl)cc2Cl)Cc2ccccc2)c1O [compound 126] | – | – | 0 to 80% | 0 to 80% | – | – | – | –
6 | COc1ccnc(C(=O)N[C@@H](C)C(=O)O[C@@H](C)[C@H](Cc2ccc(Cl)c(Cl)c2)c2ccccc2)c1O [compound 127] | 0 to 80% | – | 0 to 80% | 0 to 80% | – | – | – | –
7 | COc1ccnc(C(=O)N[C@@H](C)C(=O)O[C@@H](C)[C@H](Cc2ccc(C)cc2)c2ccccc2)c1O [compound 128] | 0 to 80% | – | 80 to 100% | 80 to 100% | – | – | – | –
8 | COc1ccnc(C(=O)N[C@@H](C)C(=O)O[C@@H](C)[C@H](Cc2ccc(F)cc2)c2ccccc2)c1O [compound 129] | 0 to 80% | 0 to 80% | 80 to 100% | 80 to 100% | – | – | – | –
9 | COc1ccnc(C(=O)N[C@@H](C)C(=O)O[C@@H](C)[C@H](Cc2ccc3ccccc3c2)c2ccccc2)c1O [compound 130] | 0 to 80% | – | 80 to 100% | 80 to 100% | – | – | – | –
10 | COc1ccnc(C(=O)N[C@@H](C)C(=O)O[C@@H](C)[C@@H](COCc2ccccc2)Cc2ccc(F)cc2)c1O [compound 131] | 0 to 80% | 0 to 80% | 80 to 100% | 80 to 100% | – | – | – | –
11 | COc1ccnc(C(=O)N[C@@H](C)C(=O)O[C@@H](C)[C@@H](COCc2ccccc2)Cc2ccccc2)c1O [compound 132] | 80 to 100% | 80 to 100% | 0 to 80% | 80 to 100% | – | – | – | –
12 | COc1ccnc(C(=O)N[C@@H](C)C(=O)O[C@@H](C)[C@H](Cc2ccc(F)cc2)C(C)(C)OCc2ccccc2)c1O [compound 133] | 0 to 80% | – | 0 to 80% | 80 to 100% | – | – | – | –
13 | COc1ccnc(C(=O)N[C@@H](C)C(=O)O[C@@H](C)[C@H](Cc2ccccc2)C(C)(C)OCc2ccccc2)c1O [compound 134] | 0 to 80% | 0 to 80% | 80 to 100% | 80 to 100% | – | – | – | –
14 | COC[C@@H](Cc1ccc(F)cc1)[C@H](C)OC(=O)[C@H](C)NC(=O)c1nccc(OC)c1O [compound 135] | 0 to 80% | 0 to 80% | 0 to 80% | 80 to 100% | – | – | – | –
15 | COc1ccnc(C(=O)N[C@@H](C)C(=O)O[C@@H](C)[C@H](Cc2ccc(F)cc2)C(C)(C)OC)c1O [compound 136] | 80 to 100% | 0 to 80% | – | 0 to 80% | – | – | – | –
16 | COc1ccnc(C(=O)N[C@@H](C)C(=O)O[C@@H](C)[C@H](Cc2ccccc2)C(C)(C)OC)c1O [compound 137] | 0 to 80% | 0 to 80% | – | – | – | – | – | –
17 | COc1ccnc(C(=O)N[C@@H](C)C(=O)O[C@@H](C)[C@H](Cc2ccc(F)cc2)C(C)(C)OCc2ccc(F)cc2)c1O [compound 139] | 0 to 80% | – | 0 to 80% | 0 to 80% | – | – | – | –

Row | SMILES | pest or weed control at 100 ppm (Zymoseptoria tritici; [1]) | pest or weed control at 100 ppm (Puccinia triticina; [2]) | pest or weed control at 100 ppm (Zymoseptoria tritici; [3]) | pest or weed control at 100 ppm (Puccinia triticina; [4]) | pest or weed control at 121.5 g/ha (Zymoseptoria tritici; [3]) | pest or weed control at 121.5 g/ha (Zymoseptoria tritici; [5]) | pest or weed control at 121.5 g/ha (Puccinia triticina; [4]) | pest or weed control at 121.5 g/ha (Puccinia triticina; [6])
18 | COc1ccnc(C(=O)N[C@@H](C)C(=O)O[C@@H](C)[C@@H](COCCC(C)C)Cc2ccc(F)cc2)c1O [compound 140] | 0 to 80% | 0 to 80% | 0 to 80% | – | – | – | – | –
19 | COc1ccnc(C(=O)N[C@@H](C)C(=O)O[C@@H](C)[C@@H](COCCC(C)C)Cc2ccccc2)c1O [compound 141] | 0 to 80% | 0 to 80% | 80 to 100% | 0 to 80% | – | – | – | –
20 | CCCOC[C@@H](Cc1ccc(OC)cc1)[C@H](C)OC(=O)[C@H](C)NC(=O)c1nccc(OC)c1O [compound 143] | 0 to 80% | 0 to 80% | 80 to 100% | 80 to 100% | – | – | – | –
21 | CCCOC[C@@H](Cc1ccc(OC)c(Cc2ccccc2)c1)[C@H](C)OC(=O)[C@H](C)NC(=O)c1nccc(OC)c1O [compound 145] | 0 to 80% | – | 80 to 100% | 0 to 80% | – | – | – | –
22 | CCCOC(C)(C)[C@@H](Cc1ccc(OC)c(Cc2ccccc2)c1)[C@H](C)OC(=O)[C@H](C)NC(=O)c1nccc(OC)c1O [compound 146] | 0 to 80% | – | 0 to 80% | 0 to 80% | – | – | – | –
23 | COc1ccnc(C(=O)N[C@@H](C)C(=O)OC(C)C(Cc2ccccc2)Cc2ccccc2)c1O (stereo partly shown) [compound 147] | – | – | 80 to 100% | 80 to 100% | – | – | – | –
24 | COc1ccnc(C(=O)N[C@H](C(=O)OC(C)C(Cc2ccccc2)Cc2ccccc2)C(C)C)c1O (stereo partly shown) [compound 148] | – | – | 0 to 80% | 0 to 80% | – | – | – | –
25 | CC[C@H](NC(=O)c1nccc(OC)c1O)C(=O)OC(C)C(Cc1ccccc1)Cc1ccccc1 (stereo partly shown) [compound 149] | – | – | 80 to 100% | 80 to 100% | – | – | – | –
26 | COc1ccnc(C(=O)N[C@@H](C)C(=O)OC(C)C(Cc2cccc(F)c2)Cc2cccc(F)c2)c1O (stereo partly shown) [compound 150] | – | – | 80 to 100% | 80 to 100% | – | – | – | –
27 | COc1ccnc(C(=O)N[C@@H](C)C(=O)OC(C)C(Cc2ccc(F)cc2)Cc2ccc(F)cc2)c1O (stereo partly shown) [compound 151] | – | – | 80 to 100% | 80 to 100% | – | – | – | –
28 | CC[C@H](NC(=O)c1nccc(OC)c1O)C(=O)O[C@@H](C)C(Cc1cccc(OC)c1)Cc1cccc(OC)c1 [compound 153] | 0 to 80% | – | 0 to 80% | 80 to 100% | – | – | – | –
29 | COc1ccc(CC(Cc2ccc(OC)cc2)[C@H](C)OC(=O)[C@H](C)NC(=O)c2nccc(OC)c2O)cc1 [compound 154] | – | – | 80 to 100% | 80 to 100% | – | – | – | –
30 | COc1ccc(C[C@H](COc2ccc(F)cc2F)[C@H](C)OC(=O)[C@H](C)NC(=O)c2nccc(OC)c2O)cc1 [compound 160] | – | – | 0 to 80% | 80 to 100% | – | – | – | –
31 | CCCOC[C@@H](Cc1ccccc1)[C@H](C)OC(=O)[C@H](C)NC(=O)c1nccc(OC)c1OCOC(C)=O [compound 162] | 80 to 100% | 80 to 100% | 80 to 100% | 80 to 100% | 80 to 100% | 80 to 100% | 80 to 100% | 80 to 100%
32 | CCCO[C@@H](CC)[C@@H](Cc1ccccc1)[C@H](C)OC(=O)[C@@H](C)NC(=O)c1nccc(OC)c1OCOC(C)=O [compound 163] | 0 to 80% | 80 to 100% | 0 to 80% | 80 to 100% | – | – | – | –
33 | CCCO[C@@H](CC)[C@@H](Cc1ccccc1)[C@H](C)OC(=O)[C@H](CC)NC(=O)c1nccc(OC)c1OCOC(C)=O [compound 164] | 80 to 100% | 80 to 100% | 80 to 100% | 80 to 100% | 0 to 80% | 0 to 80% | 80 to 100% | 80 to 100%
34 | CCCO[C@H](CC)[C@@H](Cc1ccccc1)[C@H](C)OC(=O)[C@@H](C)NC(=O)c1nccc(OC)c1OCOC(C)=O [compound 165] | 0 to 80% | 80 to 100% | 80 to 100% | 0 to 80% | – | – | – | –
